SMILES strings stand for the structures.

The results in this text go back to ChEMBL document CHEMBL5550101, “Inhibition of cancer cells by Quinoline-Based compounds: A review with mechanistic insights” (Bioorg Med Chem, 2024).

Experiment [1] has as its system MCF7. Description: Cytotoxicity against human MCF7 cells assessed as cell growth inhibition by measuring lethal concentration by SRB assay. It counts as functional.
Experiment [2] concerns M14. Kind of experiment: Cytotoxicity against human M14 cells assessed as cell growth inhibition by measuring lethal concentration by SRB assay. Type of experiment: functional. For orientation: The SRB assay estimates cell density from bound dye.
For experiment [3], the system named is OVCAR-3. Description: Cytotoxicity against human OVCAR-3 cells assessed as cell growth inhibition by measuring lethal concentration by SRB assay. It counts as functional.
Experiment [4] concerns SR. Kind of experiment: Cytotoxicity against human SR cells assessed as cell growth inhibition by measuring lethal concentration by SRB assay. It counts as functional. The conditions noted are these: read-out: LC50 (the source's name).
The subject of experiment [5] is PC-3. Kind of experiment: Cytotoxicity against human PC-3 cells assessed as cell growth inhibition by measuring lethal concentration by SRB assay. It counts as functional. The conditions noted are these: read-out: LC50 (the source's name).
The subject of experiment [6] is A498. Kind of experiment: Cytotoxicity against human A498 cells assessed as cell growth inhibition by measuring lethal concentration by SRB assay. Type of experiment: functional.
In experiment [7] the test system is A549. Description: Cytotoxicity against human A549 cells assessed as cell growth inhibition by measuring lethal concentration by SRB assay. Type of experiment: functional. Particulars: read-out: LC50 (the source's name).
Experiment [8] addresses Platelet-derived growth factor receptor beta (Homo sapiens, UniProt P09619). Description: Inhibition of PDGFRbeta (unknown origin).
Experiment [9] relates to MCF7. Description: Cytotoxicity against human MCF7 cells assessed as reduction in cell growth measured for 48 hrs by SRB assay. It counts as functional, cell-based. Particulars: MCF7, 48 h.
For experiment [10], the target named is Epidermal growth factor receptor (Homo sapiens, UniProt P00533). Description: Inhibition of EGFR (unknown origin).
The test system of experiment [11] is HCT-116. Description: Cytotoxicity against human HCT-116 cells assessed as cell growth inhibition by measuring lethal concentration by SRB assay. It counts as functional.
Experiment [12] has as its system MCF7. Kind of experiment: Cytotoxicity against human MCF7 cells assessed as reduction in cell growth incubated for 72 hrs by SRB assay. It counts as functional, cell-based. The conditions noted are these: MCF7, 72 h.
Experiment [13] has as its system A549. Description: Antiproliferative activity against human A549 cells assessed as reduction in cell growth incubated for 48 hrs by MTT assay. Type of experiment: functional, cell-based. The conditions noted are these: A549, 48 h. In general terms: Tetrazolium dyes change colour on reduction, which living cells bring about.
Experiment [14] deals with Hepatocyte growth factor receptor (Homo sapiens, UniProt P08581). Kind of experiment: Inhibition of c-Met (unknown origin) by mobility shift assay.
Experiment [15] has as its system MCF7. Kind of experiment: Antiproliferative activity against human MCF7 cells assessed as reduction in cell growth incubated for 48 hrs by SRB assay. Type of experiment: functional, cell-based. Particulars: MCF7, 48 h.

Sequence of Epidermal growth factor receptor (P00533 whole entry): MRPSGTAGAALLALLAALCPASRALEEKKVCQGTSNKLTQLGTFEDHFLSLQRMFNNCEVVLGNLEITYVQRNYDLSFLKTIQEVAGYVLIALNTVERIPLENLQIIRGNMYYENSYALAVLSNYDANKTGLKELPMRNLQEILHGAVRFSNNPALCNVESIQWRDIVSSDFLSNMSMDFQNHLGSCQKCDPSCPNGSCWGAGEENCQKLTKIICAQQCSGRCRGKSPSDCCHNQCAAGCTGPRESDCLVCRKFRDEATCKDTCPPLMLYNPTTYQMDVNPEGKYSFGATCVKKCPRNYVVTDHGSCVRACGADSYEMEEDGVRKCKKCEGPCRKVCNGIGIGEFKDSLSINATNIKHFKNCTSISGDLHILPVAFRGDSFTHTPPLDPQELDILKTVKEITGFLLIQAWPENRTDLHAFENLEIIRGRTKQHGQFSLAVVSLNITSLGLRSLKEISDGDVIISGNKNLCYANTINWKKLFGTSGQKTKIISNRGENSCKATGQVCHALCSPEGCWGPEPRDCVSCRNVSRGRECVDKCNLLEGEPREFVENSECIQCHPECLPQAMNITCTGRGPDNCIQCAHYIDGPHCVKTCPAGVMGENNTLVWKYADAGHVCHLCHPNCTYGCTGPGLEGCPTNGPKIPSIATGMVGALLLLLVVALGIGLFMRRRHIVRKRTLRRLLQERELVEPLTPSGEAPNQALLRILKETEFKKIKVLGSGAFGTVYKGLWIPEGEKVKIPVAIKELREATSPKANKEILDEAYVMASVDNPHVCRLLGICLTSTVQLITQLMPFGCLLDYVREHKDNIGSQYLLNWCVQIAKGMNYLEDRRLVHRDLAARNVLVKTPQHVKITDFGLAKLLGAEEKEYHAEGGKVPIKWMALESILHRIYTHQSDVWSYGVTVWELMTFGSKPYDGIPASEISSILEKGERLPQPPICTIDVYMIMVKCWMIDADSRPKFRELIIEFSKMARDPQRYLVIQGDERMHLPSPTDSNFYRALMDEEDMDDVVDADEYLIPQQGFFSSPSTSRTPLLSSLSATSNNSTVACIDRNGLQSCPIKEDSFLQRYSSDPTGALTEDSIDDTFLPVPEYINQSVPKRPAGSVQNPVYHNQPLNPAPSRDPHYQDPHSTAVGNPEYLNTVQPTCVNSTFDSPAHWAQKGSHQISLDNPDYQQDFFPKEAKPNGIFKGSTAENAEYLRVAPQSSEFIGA
Sequence of Platelet-derived growth factor receptor beta (P09619 whole entry): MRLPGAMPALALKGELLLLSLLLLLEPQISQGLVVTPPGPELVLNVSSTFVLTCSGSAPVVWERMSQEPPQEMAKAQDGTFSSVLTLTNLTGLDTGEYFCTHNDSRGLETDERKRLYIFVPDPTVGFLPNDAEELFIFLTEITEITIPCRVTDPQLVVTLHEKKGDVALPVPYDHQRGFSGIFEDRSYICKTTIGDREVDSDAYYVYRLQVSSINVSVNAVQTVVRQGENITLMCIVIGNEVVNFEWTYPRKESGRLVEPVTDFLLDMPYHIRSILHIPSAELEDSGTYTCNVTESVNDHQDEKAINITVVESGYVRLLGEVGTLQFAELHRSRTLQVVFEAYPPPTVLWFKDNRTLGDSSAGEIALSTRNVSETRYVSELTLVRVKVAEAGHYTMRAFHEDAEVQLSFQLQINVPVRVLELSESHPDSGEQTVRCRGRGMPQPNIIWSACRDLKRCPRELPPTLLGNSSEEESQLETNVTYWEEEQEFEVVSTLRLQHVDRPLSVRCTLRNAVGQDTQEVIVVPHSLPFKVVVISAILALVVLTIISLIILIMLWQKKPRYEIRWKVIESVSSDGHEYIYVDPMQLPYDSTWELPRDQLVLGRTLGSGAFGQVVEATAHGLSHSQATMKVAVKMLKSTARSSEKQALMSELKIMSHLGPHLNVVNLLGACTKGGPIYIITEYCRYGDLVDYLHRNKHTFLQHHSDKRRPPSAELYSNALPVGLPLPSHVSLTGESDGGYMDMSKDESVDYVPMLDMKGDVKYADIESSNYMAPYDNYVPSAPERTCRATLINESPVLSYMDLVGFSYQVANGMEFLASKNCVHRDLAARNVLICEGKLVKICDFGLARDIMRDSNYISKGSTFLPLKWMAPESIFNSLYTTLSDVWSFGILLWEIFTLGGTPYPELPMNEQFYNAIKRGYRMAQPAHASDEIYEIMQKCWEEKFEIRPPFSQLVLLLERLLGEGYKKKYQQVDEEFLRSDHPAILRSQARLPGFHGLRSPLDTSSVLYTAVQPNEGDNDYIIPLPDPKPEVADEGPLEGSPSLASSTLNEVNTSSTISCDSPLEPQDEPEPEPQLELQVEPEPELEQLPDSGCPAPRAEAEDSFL
Sequence of Hepatocyte growth factor receptor (P08581 whole entry): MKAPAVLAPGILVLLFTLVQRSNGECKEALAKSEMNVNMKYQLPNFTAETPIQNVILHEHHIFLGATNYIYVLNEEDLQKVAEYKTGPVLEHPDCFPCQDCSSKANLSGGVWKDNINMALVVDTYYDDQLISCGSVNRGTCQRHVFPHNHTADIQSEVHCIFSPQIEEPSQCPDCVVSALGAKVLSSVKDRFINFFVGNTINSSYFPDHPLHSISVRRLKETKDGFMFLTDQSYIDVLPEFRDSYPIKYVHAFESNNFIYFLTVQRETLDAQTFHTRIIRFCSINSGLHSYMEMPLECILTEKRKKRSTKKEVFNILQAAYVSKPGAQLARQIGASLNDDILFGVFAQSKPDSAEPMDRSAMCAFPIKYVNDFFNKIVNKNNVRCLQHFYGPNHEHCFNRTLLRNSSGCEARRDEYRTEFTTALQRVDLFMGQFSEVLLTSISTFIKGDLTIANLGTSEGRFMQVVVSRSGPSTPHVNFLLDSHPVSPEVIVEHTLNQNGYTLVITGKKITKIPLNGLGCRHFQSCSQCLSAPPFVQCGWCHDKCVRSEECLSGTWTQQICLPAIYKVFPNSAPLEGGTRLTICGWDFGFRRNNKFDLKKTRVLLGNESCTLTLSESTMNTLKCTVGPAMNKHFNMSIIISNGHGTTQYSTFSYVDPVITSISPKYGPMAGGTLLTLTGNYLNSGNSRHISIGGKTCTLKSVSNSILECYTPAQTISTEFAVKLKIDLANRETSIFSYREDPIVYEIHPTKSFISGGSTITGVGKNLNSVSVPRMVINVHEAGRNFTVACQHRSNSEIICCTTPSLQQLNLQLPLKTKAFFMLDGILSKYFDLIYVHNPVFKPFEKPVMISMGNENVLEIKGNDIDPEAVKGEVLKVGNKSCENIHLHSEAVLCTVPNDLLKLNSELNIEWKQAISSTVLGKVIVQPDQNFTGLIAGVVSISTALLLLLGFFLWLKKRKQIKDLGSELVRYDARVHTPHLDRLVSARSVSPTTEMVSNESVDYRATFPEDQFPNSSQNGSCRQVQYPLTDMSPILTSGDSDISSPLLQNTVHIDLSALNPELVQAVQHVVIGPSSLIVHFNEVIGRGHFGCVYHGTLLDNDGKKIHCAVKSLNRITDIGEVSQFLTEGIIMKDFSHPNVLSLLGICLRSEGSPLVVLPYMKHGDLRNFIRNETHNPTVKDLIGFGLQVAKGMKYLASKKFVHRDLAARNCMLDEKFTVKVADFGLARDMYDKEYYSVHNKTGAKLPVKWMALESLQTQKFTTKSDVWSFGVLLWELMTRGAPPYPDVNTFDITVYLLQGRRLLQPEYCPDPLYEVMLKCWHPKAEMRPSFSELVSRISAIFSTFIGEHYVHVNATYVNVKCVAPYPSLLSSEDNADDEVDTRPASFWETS

A word on the LC50: it is the concentration that kills 50% of the test population. Consider `CCCCCCOc1ccc(/C=N/Nc2cc(C)nc3ccc(Cl)cc23)cc1`, for which the LC50 stood at 6.97 µM in experiment [1], 6.26 µM in experiment [2], 6.83 µM in experiment [3] and 6.55 µM in experiment [6]. The CC50 in [4] was found to be 8.11 µM; in experiment [5], 5.83 µM; in [7], 7.22 µM.

By IC50 is commonly meant the concentration that inhibits the measured activity by half. On to `CN1c2ccc(F)cc2SC1C(=O)Nc1cccc2c1N(Cc1ccc(OC3CCNCC3)cc1)CCC2` (stereo not drawn), for which, in [8], the IC50 worked out at 1130 nM.

For the compound `CCOc1ccc(/C=N/Nc2cc(C)nc3ccc(Cl)cc23)cc1`, the LC50 in experiment [1] worked out at 6.6 µM; in experiment [2] it was 5.55 µM; in experiment [3], 6.36 µM; in [6], 7.01 µM. For the same compound, the CC50 came to 15.5 µM in [4], 6.54 µM in experiment [5] and 6.94 µM in [7].

Take `COc1ccc2c(c1)CCc1c-2nc(N)c(C#N)c1-c1ccc(OC)c(OC)c1`: the results for the IC50 in experiment [9] and in experiment [10] were 14.5 µM and 130 nM, respectively.

As to `CCCCOc1ccc(/C=N/Nc2ccnc3ccc(Cl)cc23)cc1`, half-maximal inhibition in [8] (IC50) was put at 1760 nM.

In experiment [8], `COc1ccc(-c2cc3ccc(OC)cc3nc2Nc2ccc(NC(=O)CN3CCN(C)CC3)cc2)cc1` registered a half-inhibitory concentration (IC50) of 5000 nM.

For the compound `COc1ccc2c(c1)CCc1c-2nc(N)c(C#N)c1-c1ccc(OC)cc1OC`, the half-maximal inhibitory concentration (IC50) in experiment [9] was determined as 17.6 µM; in experiment [10], 130 nM.

For the compound `COc1ccc(-c2cc3cc(OC)ccc3nc2Nc2ccc(NC(=O)CN3CCN(C)CC3)cc2)cc1`, 5000 nM corresponded to half-maximal inhibition in [8] (IC50).

With `CCCCCOc1ccc(/C=N/Nc2cc(C)nc3ccc(Br)cc23)cc1`, the LC50 stood at 7.93 µM in [1]; 6.64 µM in experiment [2]; 5.92 µM in experiment [3]; 6.35 µM in [11]; 6.02 µM in [6]. The CC50 was 21.3 µM in [4], 5.88 µM in experiment [5] and 7.15 µM in experiment [7].

With `CC(=O)c1ccc2ncc(C(N)=O)c(Nc3ccc(OCc4ccccc4)cc3)c2c1`, the IC50 in experiment [12] came out at 10.8 µM.

For the compound `O=C(Nc1ccc2c(c1)CCCN2C(=O)c1ccc(Cl)cc1)c1cc(C(F)(F)F)cc(C(F)(F)F)c1`, the IC50 in experiment [13] came to 3200 nM.

As to `N#Cc1c(-c2ccc3ncc(C(N)=O)c(Nc4cccc(Br)c4)c3c2)csc1N`, the IC50 in experiment [12] stood at 50.6 µM.

With `CCN(C(=O)c1cc(C(C)C)c(O)cc1O)c1cnc2ccccc2c1`, the IC50 in [14] was 170 nM.

Regarding `CCOC(=O)C(=O)Nc1ccc2c(c1)CCCN2C(=O)c1ccc(Cl)cc1`, the IC50 in experiment [13] came to 150 nM.

Turning to `COc1ccc2c(c1)CCc1c-2[nH]c(=O)c(C#N)c1-c1ccc(OC)cc1OC`, the IC50 in experiment [9] was 7.21 µM; in experiment [10] it was 130 nM.

On to `CCCCCOc1ccc(/C=N/Nc2cc(C)nc3ccc(Cl)cc23)cc1`, for which the LC50 in experiment [1] is 7.04 µM; in experiment [2], 5.91 µM; in [3] it was 6.51 µM; in experiment [11] it was 5.02 µM; in [6] it was 5.13 µM. Also, the CC50 in experiment [4] was determined as 4.2 µM; in [5], 5.98 µM; in experiment [7] it was 6.52 µM.

In the case of `COc1ccc(-c2c(C#N)c(N)nc3c2CCc2cc(OC)ccc2-3)cc1`, the IC50 in [9] is 12 µM.

On to `CCCOc1ccc(/C=N/Nc2ccnc3ccc(Br)cc23)cc1`, for which the IC50 in experiment [8] stood at 1830 nM.

`COc1ccc2c(Oc3ccc(CC(=O)Nc4cn(C)nc4C)c(OC)c3)ccnc2c1`: the IC50 in experiment [14] was determined as 4 nM.

Consider `COc1ccc2nc(Cl)cc(C3CC(c4ccc(C)cc4)=NN3c3nc(C)c(C(=O)Nc4ccccc4)s3)c2c1` (stereo not drawn), for which the IC50 in [15] amounted to 360 nM.

Consider `O=C(Cc1ccc([N+](=O)[O-])cc1)Nc1ccc2c(c1)CCCN2C(=O)c1ccc(Cl)cc1`, for which the 50% inhibitory concentration (IC50) in experiment [13] was 60 nM.

On to `CCCCCCOc1ccc(/C=N/Nc2cc(C)nc3ccc(Br)cc23)cc1`, for which the median lethal concentration (LC50) in experiment [1] turned out to be 6.84 µM; in experiment [2], 6.67 µM; in experiment [3], 6.85 µM; in experiment [11], 4.67 µM; in [6] it was 6.03 µM. In addition, the values for the CC50 in experiment [4], in experiment [5] and in experiment [7] were greater than 100 µM, 5.84 µM and 6.61 µM, respectively.

For `CCCCOc1ccc(/C=N/Nc2ccnc3ccc(Br)cc23)cc1`, 2200 nM corresponded to half-maximal inhibition in experiment [8] (IC50).

Take `CCOC(=O)c1sc(N2N=C(c3ccc(C)cc3)CC2c2cc(Cl)nc3ccc(OC)cc23)nc1C` (stereo not drawn): in experiment [15], the 50% inhibitory concentration (IC50) is 320 nM.

On to `CCCOc1ccc(/C=N/Nc2cc(C)nc3ccc(Cl)cc23)cc1`, for which the 50% lethal concentration (LC50) is 6.9 µM in experiment [1]; 6.17 µM in experiment [2]; 6.44 µM in experiment [3]; 6.48 µM in [11]; 5.79 µM in [6]. For the same compound, the CC50 amounted to 38.6 µM in experiment [4], 6.39 µM in experiment [5] and 6.49 µM in [7].

As for `COc1ccc2nc(Cl)cc(C3CC(c4ccc(C)cc4)=NN3c3nc(-c4ccccc4)cs3)c2c1` (stereo not drawn), in [15], the IC50 came out at 210 nM.

On to `O=C(Cc1ccc(Br)cc1)Nc1ccc2c(c1)CCCN2C(=O)c1ccc(Cl)cc1`, for which, in experiment [13], the IC50 was 650 nM.

Turning to `Nc1ccc(CC(=O)Nc2ccc3c(c2)CCCN3C(=O)c2ccc(Cl)cc2)cc1`, in experiment [13], the 50% inhibitory concentration (IC50) was 220 nM.

In the case of `CCCCOc1ccc(/C=N/Nc2cc(C)nc3ccc(Br)cc23)cc1`, the LC50 in [1] worked out at 7.37 µM; in experiment [2] it was 5.88 µM; in experiment [3] it was 7.18 µM; in experiment [11], 6.17 µM; in experiment [6] it was 5.47 µM. Further, the results for the CC50 in experiment [4], in experiment [5] and in experiment [7] were greater than 100 µM, 6.49 µM and 6.61 µM, respectively.

On to `COc1ccc2nc(Cl)cc(C3CC(c4ccc(C)cc4)=NN3c3nc(-c4ccc(Cl)cc4)cs3)c2c1` (stereo not drawn), for which the 50% inhibitory concentration (IC50) in experiment [15] amounted to 1180 nM.

With `Cc1ccc(Nc2c(C(N)=O)cnc3ccc(C(=O)/C=C/c4ccc(-c5ccc(Cl)cc5)o4)cc23)cc1`, the IC50 in [12] came out at 3.35 µM.

`CCOc1ccc(/C=N/Nc2ccnc3ccc(Br)cc23)cc1` gave a 50% inhibitory concentration (IC50) in experiment [8] of 1860 nM.

Turning to `COc1ccc2nc(Cl)cc(C3CC(c4ccc(C)cc4)=NN3c3nc(C)c(NNc4ccccc4)s3)c2c1` (stereo not drawn), the 50% inhibitory concentration (IC50) in experiment [15] was 410 nM.

Take `COc1ccc2nc(O)c(C3CC(c4ccc(C)cc4)=NN3C(C)=O)cc2c1` (stereo not drawn): the 50% inhibitory concentration (IC50) in experiment [15] was 210 nM.

Turning to `CCc1[nH]nc(NC(=O)Cc2ccc(Oc3ccnc4cc(OC)ccc34)cc2OC)c1C`, the 50% inhibitory concentration (IC50) in [14] was determined as 3 nM.

As to `COc1ccc(-c2c3c([nH]c(=O)c2C#N)-c2ccc(OC)cc2CC3)cc1`, the figures for the IC50 in [9] and in experiment [10] were 18.1 µM and 130 nM, respectively.

Regarding `CCCCOc1ccc(/C=N/Nc2cc(C)nc3ccc(Cl)cc23)cc1`, the LC50 in [1] was 6.87 µM; in [2] it was 8.07 µM; in [3], 7.04 µM; in experiment [11] it was greater than 100 µM; in experiment [6], 5.67 µM. Besides, the CC50 was greater than 100 µM in [4], 6.55 µM in [5] and 6.35 µM in experiment [7].

As for `O=C(Cc1ccccc1)Nc1ccc2c(c1)CCCN2C(=O)c1ccc(Cl)cc1`, the 50% inhibitory concentration (IC50) in experiment [13] was found to be 970 nM.

As for `COc1ccc2c(c1)CCc1c-2[nH]c(=O)c(C#N)c1-c1ccc(OC)c(OC)c1`, the figures for the IC50 in experiment [9] and in experiment [10] were 13.7 µM and 130 nM, respectively.
